Experiments:
Assay type in all cases: in vivo
[1] = system: barnyardgrass (Echinochloa crus-galli); assay: Test B flooded paddy test; set-up: key: 0 = no effect, 100 = complete control; conditions: Flood, 250 g ai/ha applied to paddy water at 2-leaf stage; visually evaluated after 13 to 15 days; scale 0 (no effect) to 100 (complete control)
How it was run: (§1)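 Paddy-water application at a 3 cm flood, young plants having two leaves. Water level maintained; greenhouse, 13–15 days; visual 0–100 control rating.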

[2] = system: ducksalad (Heteranthera limosa); assay: Test B flooded paddy test; set-up: key: 0 = no effect, 100 = complete control; conditions: Flood, 250 g ai/ha applied to paddy water at 2-leaf stage; visually evaluated after 13 to 15 days; scale 0 (no effect) to 100 (complete control)
How it was run: as §1

[3] = system: Italian ryegrass (Lolium multiflorum); assay: Test C preemergence; conditions: scale 0 to 100, 0 is no effect, 100 is complete control
Excerpt: (§2) Seeds of plant species selected from blackgrass (Alopecurus myosuroides), Italian ryegrass (Lolium multiflorum), winter wheat (Triticum aestivum), galium (catchweed bedstraw, Galium aparine), corn (Zea mays), large (Lg) crabgrass (Digitaria sanguinalis), giant foxtail (Setaria faberii), johnsongrass (Sorghum halepense), lambsquarters (Chenopodium album), morningglory (Ipomoea coccinea), yellow nutsedge (Cyperus esculentus), pigweed (Amaranthus retroflexus), ragweed (common ragweed, Ambrosia elatior), soybean (Glycine max), barnyardgrass (Echinochloa crus-galli), oilseed rape (Brassica napus), waterhemp (common waterhemp, Amaranthus rudis), and velvetleaf (Abutilon theophrasti) were planted into a blend of loam soil and sand and treated preemergence with test chemicals formulated in a non-phytotoxic solvent mixture which included a surfactant. At the same time, plants selected from these crop and weed species and also chickweed (common chickweed, Stellaria media), kochia (Kochia scoparia), and wild oat (Avena fatua), were planted in pots containing Sunshine Redi-Earth® planting medium comprising spaghnum peat moss, vermiculite, starter nutrients and dolomitic limestone and treated with postemergence applications of test chemicals formulated in the same manner. Plants ranged in height from 2 to 18 cm (1- to 4-leaf stage) for postemergence treatments. Treated plants and controls were maintained in a greenhouse for 13 to 15 days, after which time all species were compared to controls and visually evaluated. Plant response ratings, summarized in Table C, are based on a scale of 0 to 100 where 0 is no effect and 100 is complete control. A dash (-) response means no test result.

[4] = system: barnyardgrass (Echinochloa crus-galli); assay: Test C preemergence; conditions: scale 0 to 100, 0 is no effect, 100 is complete control
Excerpt: as §2

[5] = system: blackgrass (Alopecurus myosuroides); assay: Test C preemergence; conditions: scale 0 to 100, 0 is no effect, 100 is complete control
Excerpt: as §2

corn (Zea mays) = assay: Test C preemergence; conditions: scale 0 to 100, 0 is no effect, 100 is complete control
Excerpt: as §2

[6] = system: galium (catchweed bedstraw, Galium aparine); assay: Test C preemergence; conditions: scale 0 to 100, 0 is no effect, 100 is complete control
Excerpt: as §2

[7] = system: giant foxtail (Setaria faberii); assay: Test C preemergence; conditions: scale 0 to 100, 0 is no effect, 100 is complete control
Excerpt: as §2

[8] = system: johnsongrass (Sorghum halepense); assay: Test C preemergence; conditions: scale 0 to 100, 0 is no effect, 100 is complete control
Excerpt: as §2

[9] = system: lambsquarters (Chenopodium album); assay: Test C preemergence; conditions: scale 0 to 100, 0 is no effect, 100 is complete control
Excerpt: as §2

[10] = system: large (Lg) crabgrass (Digitaria sanguinalis); assay: Test C preemergence; conditions: scale 0 to 100, 0 is no effect, 100 is complete control
Excerpt: as §2

[11] = system: morningglory (Ipomoea coccinea); assay: Test C preemergence; conditions: scale 0 to 100, 0 is no effect, 100 is complete control
Excerpt: as §2

[12] = system: oilseed rape (Brassica napus); assay: Test C preemergence; conditions: scale 0 to 100, 0 is no effect, 100 is complete control
Excerpt: as §2

[13] = system: pigweed (Amaranthus retroflexus); assay: Test C preemergence; conditions: scale 0 to 100, 0 is no effect, 100 is complete control
Excerpt: as §2

[14] = system: ragweed (common ragweed, Ambrosia elatior); assay: Test C preemergence; conditions: scale 0 to 100, 0 is no effect, 100 is complete control
Excerpt: as §2

soybean (Glycine max) = assay: Test C preemergence; conditions: 31 g ai/ha, scale 0 to 100, 0 is no effect, 100 is complete control
Excerpt: as §2

[15] = system: velvetleaf (Abutilon theophrasti); assay: Test C preemergence; conditions: scale 0 to 100, 0 is no effect, 100 is complete control
Excerpt: as §2

[16] = system: waterhemp (common waterhemp, Amaranthus rudis); assay: Test C preemergence; conditions: scale 0 to 100, 0 is no effect, 100 is complete control
Excerpt: as §2

[17] = system: winter wheat (Triticum aestivum); assay: Test C preemergence; conditions: scale 0 to 100, 0 is no effect, 100 is complete control
Excerpt: as §2

[18] = system: yellow nutsedge (Cyperus esculentus); assay: Test C preemergence; conditions: scale 0 to 100, 0 is no effect, 100 is complete control
Excerpt: as §2

O=c1cccc(Oc2ncc(Cl)cn2)n1-c1ccc(C(F)(F)F)cc1 [Compound 10]
Plant response rating, Barnyardgrass [1]: 30 | Plant response rating, Ducksalad [2]: 65 | Plant response rating, Ryegrass, Italian ([3]; 16 g ai/ha): 0 | Plant response rating, Ryegrass, Italian ([3]; 31 g ai/ha): 10 | Plant response rating, Ryegrass, Italian ([3]; 62 g ai/ha): 90 | Plant response rating, Ryegrass, Italian ([3]; 125 g ai/ha): 85 | Plant response rating, Barnyardgrass ([4]; 16 g ai/ha): 15 | Plant response rating, Barnyardgrass ([4]; 31 g ai/ha): 55 | Plant response rating, Barnyardgrass ([4]; 62 g ai/ha): 75 | Plant response rating, Barnyardgrass ([4]; 125 g ai/ha): 98 | Plant response rating, Blackgrass ([5]; 16 g ai/ha): 15 | Plant response rating, Blackgrass ([5]; 31 g ai/ha): 60 | Plant response rating, Blackgrass ([5]; 62 g ai/ha): 95 | Plant response rating, Blackgrass ([5]; 125 g ai/ha): 95 | Plant response rating, Corn (corn (Zea mays); 16 g ai/ha): 0 | Plant response rating, Corn (corn (Zea mays); 31 g ai/ha): 0 | Plant response rating, Corn (corn (Zea mays); 62 g ai/ha): 10 | Plant response rating, Corn (corn (Zea mays); 125 g ai/ha): 5 | Plant response rating, Galium ([6]; 16 g ai/ha): 0 | Plant response rating, Galium ([6]; 31 g ai/ha): 80 | Plant response rating, Galium ([6]; 62 g ai/ha): 60 | Plant response rating, Galium ([6]; 125 g ai/ha): 98 | Plant response rating, Foxtail, Giant ([7]; 16 g ai/ha): 55 | Plant response rating, Foxtail, Giant ([7]; 31 g ai/ha): 90 | Plant response rating, Foxtail, Giant ([7]; 62 g ai/ha): 100 | Plant response rating, Foxtail, Giant ([7]; 125 g ai/ha): 100 | Plant response rating, Johnsongrass ([8]; 16 g ai/ha): 0 | Plant response rating, Johnsongrass ([8]; 31 g ai/ha): 5 | Plant response rating, Johnsongrass ([8]; 62 g ai/ha): 35 | Plant response rating, Johnsongrass ([8]; 125 g ai/ha): 70 | Plant response rating, Lambsquarters ([9]; 16 g ai/ha): 35 | Plant response rating, Lambsquarters ([9]; 31 g ai/ha): 25 | Plant response rating, Lambsquarters ([9]; 62 g ai/ha): 35 | Plant response rating, Lambsquarters ([9]; 125 g ai/ha): 75 | Plant response rating, Crabgrass, Large ([10]; 16 g ai/ha): 75 | Plant response rating, Crabgrass, Large ([10]; 31 g ai/ha): 98 | Plant response rating, Crabgrass, Large ([10]; 62 g ai/ha): 100 | Plant response rating, Crabgrass, Large ([10]; 125 g ai/ha): 100 | Plant response rating, Morningglory ([11]; 16 g ai/ha): 0 | Plant response rating, Morningglory ([11]; 31 g ai/ha): 0 | Plant response rating, Morningglory ([11]; 62 g ai/ha): 15 | Plant response rating, Morningglory ([11]; 125 g ai/ha): 55 | Plant response rating, Oilseed Rape ([12]; 16 g ai/ha): 0 | Plant response rating, Oilseed Rape ([12]; 31 g ai/ha): 10 | Plant response rating, Oilseed Rape ([12]; 62 g ai/ha): 70 | Plant response rating, Oilseed Rape ([12]; 125 g ai/ha): 80 | Plant response rating, Pigweed ([13]; 16 g ai/ha): 55 | Plant response rating, Pigweed ([13]; 31 g ai/ha): 65 | Plant response rating, Pigweed ([13]; 62 g ai/ha): 100 | Plant response rating, Pigweed ([13]; 125 g ai/ha): 100 | Plant response rating, Ragweed ([14]; 16 g ai/ha): 35 | Plant response rating, Ragweed ([14]; 31 g ai/ha): 25 | Plant response rating, Ragweed ([14]; 62 g ai/ha): 25 | Plant response rating, Ragweed ([14]; 125 g ai/ha): 65 | Plant response rating, Soybean (soybean (Glycine max)): 20 | Plant response rating, Velvetleaf ([15]; 16 g ai/ha): 0 | Plant response rating, Velvetleaf ([15]; 31 g ai/ha): 20 | Plant response rating, Velvetleaf ([15]; 62 g ai/ha): 40 | Plant response rating, Velvetleaf ([15]; 125 g ai/ha): 55 | Plant response rating, Waterhemp ([16]; 16 g ai/ha): 70 | Plant response rating, Waterhemp ([16]; 31 g ai/ha): 95 | Plant response rating, Waterhemp ([16]; 62 g ai/ha): 100 | Plant response rating, Waterhemp ([16]; 125 g ai/ha): 100 | Plant response rating, Wheat ([17]; 16 g ai/ha): 0 | Plant response rating, Wheat ([17]; 31 g ai/ha): 0 | Plant response rating, Wheat ([17]; 62 g ai/ha): 5 | Plant response rating, Wheat ([17]; 125 g ai/ha): 5 | Plant response rating, Nutsedge, Yellow ([18]; 16 g ai/ha): 0 | Plant response rating, Nutsedge, Yellow ([18]; 31 g ai/ha): 0 | Plant response rating, Nutsedge, Yellow ([18]; 62 g ai/ha): 0 | Plant response rating, Nutsedge, Yellow ([18]; 125 g ai/ha): 0

From patent US9963442B2, “Pyridones as herbicides” (E I DU PONT DE NEMOURS AND COMPANY, priority 2014, dated 2018)
